Source: publication PMC5681660, “Reduced hepatitis B and D viral entry using clinically applied drugs as novel inhibitors of the bile acid transporter NTCP” (Scientific Reports, 2017)
Counter-ions that a name gives are not always drawn.

Molecular target: T1, human NTCP (Homo sapiens, UniProt Q14973)
T1 sequence (Q14973 1-349): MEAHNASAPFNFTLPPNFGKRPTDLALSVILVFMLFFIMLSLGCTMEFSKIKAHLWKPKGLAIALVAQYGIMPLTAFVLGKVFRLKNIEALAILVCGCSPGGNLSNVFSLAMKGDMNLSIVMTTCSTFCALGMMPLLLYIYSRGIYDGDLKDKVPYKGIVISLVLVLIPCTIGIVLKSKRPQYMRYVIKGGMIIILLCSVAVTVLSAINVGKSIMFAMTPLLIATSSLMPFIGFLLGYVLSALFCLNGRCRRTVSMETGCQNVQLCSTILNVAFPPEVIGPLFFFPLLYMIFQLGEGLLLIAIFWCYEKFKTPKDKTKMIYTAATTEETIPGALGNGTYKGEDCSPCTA
Experiment: Screening taurocholate uptake assay (96-well, [14C]taurocholate, 10 µM drug)
Conditions: for B-score functional assay: 10 µM drug; for position among the hits of the screen (combined ranking of both screening assays): 1280 drugs at 10 µM, TC uptake and Myrcludex B binding screens combined

[1] = combined ranking of functional and binding screening assays
[2] = screening taurocholate uptake, B-score
[3] = ranking over the functional and the binding screening assay

Row | Structure (SMILES) | Ranking score [1] | B-score functional assay (screening taurocholate uptake) | Ranking score [3] | other results
1 | COC1=CC(=O)C[C@@H](C)[C@]12Oc1c(Cl)c(OC)cc(OC)c1C2=O [Griseofulvin] | 477.468 | -0.69 |  | 
2 | OC(CCN1CCCCC1)(c1ccccc1)C1CC2C=CC1C2 (stereo not drawn) [Biperiden hydrochloride] | 526.369 | -0.229 |  | 
3 | COC(=O)Nc1nc2ccc(Sc3ccccc3)cc2[nH]1 [Fenbendazole] | 1220.76 |  |  | B-score functional assay [2]: 1.989
4 | C#Cc1cccc(Nc2ncnc3cc(OCCOC)c(OCCOC)cc23)c1 [Erlotinib] |  | -3.126 | 239.996 | 
5 | CCc1cc(C(N)=S)ccn1 [Ethionamide] |  | 0.084 | 210.286 | 
6 | Cc1cccc(N(C)C(=S)Oc2ccc3ccccc3c2)c1 [Tolnaftate] | 550.781 | 6.72 |  | 
7 | C[C@]12CC[C@@H]3c4ccc(OC(=O)N(CCCl)CCCl)cc4CC[C@H]3[C@@H]1CC[C@@H]2O [Estramustine] |  | -1.527 | 134.744 | 
8 | Cc1cc(O)c(C(=O)N[C@@H](C(=O)N[C@@H]2C(=O)N3C(C(=O)O)=C(CSc4nnnn4C)CS[C@H]23)c2ccc(O)cc2)cn1 [Cefpiramide] |  | -1.403 | 261.897 | 
9 | CC(=O)O[C@H]1C[C@H](O[C@H]2[C@@H](O)C[C@H](O[C@H]3[C@@H](O)C[C@H](O[C@H]4CC[C@@]5(C)[C@H](CC[C@@H]6[C@@H]5C[C@@H](O)[C@]5(C)[C@@H](C7=CC(=O)OC7)CC[C@]65O)C4)O[C@@H]3C)O[C@@H]2C)O[C@H](C)[C@H]1O[C@@H]1O[C@H](CO)[C@@H](O)[C@H](O)[C@H]1O [Lanatoside C] | 583.598 | -0.511 |  | 
10 | O=C(O)CCC(=O)Nc1ccc(S(=O)(=O)Nc2nccs2)cc1 [Succinylsulfathiazole] |  | -0.075 | 258.147 | 
11 | O=c1cc(-c2ccc(O)c(O)c2)oc2cc(O)cc(O)c12 [Luteolin] | 585.624 | -0.024 |  | 
12 | N=C(N)NC(=O)Cc1c(Cl)cccc1Cl [Guanfacine hydrochloride] | 635.421 | 0.703 |  | 
13 | C=C(NC(=O)C(=C)NC(=O)c1csc(C2=N[C@@H]3c4csc(n4)[C@H]4NC(=O)c5csc(n5)[C@H]([C@](C)(O)[C@@H](C)O)NC(=O)[C@H]5CSC(=N5)/C(=C/C)NC(=O)[C@H]([C@@H](C)O)NC(=O)c5csc(n5)[C@]3(CC2)NC(=O)[C@H](C)NC(=O)C(=C)NC(=O)[C@H](C)NC(=O)[C@H]([C@@H](C)CC)N[C@@H]2C=Cc3c([C@H](C)O)cc(nc3[C@H]2O)C(=O)O[C@@H]4C)n1)C(N)=O [Thiostrepton] |  | -0.068 | 23.8747 | 
14 | Cc1onc(-c2ccccc2Cl)c1C(=O)N[C@@H]1C(=O)N2[C@@H]1SC(C)(C)[C@@H]2C(=O)[O-].[Na+] [Cloxacillin sodium salt] |  | 0.027 | 243.228 | 
15 | Cn1c(=O)c2[nH]cnc2n(C)c1=O [Aminophylline] | 601.379 | -0.16 |  | 
16 | COc1ccccc1OCC(O)CN1CCN(CC(=O)Nc2c(C)cccc2C)CC1 (stereo not drawn) [Ranolazine] | 603.017 | 1.748 |  | 
17 | CN(C(=O)CN(CCO)CC(=O)N(C)C(C)(C)Cc1ccccc1)C(C)(C)Cc1ccccc1 [Oxethazaine] | 642.638 | 0.282 |  | 
18 | O=C(O)Cc1ccc(-c2ccccc2)cc1 [Felbinac] | 476.874 | -1.207 |  | 
19 | CCCCOc1cc(C(=O)NCCN(CC)CC)c2ccccc2n1 [Dibucaine] | 1210.75 |  |  | B-score functional assay [2]: 1.579
20 | C[C@]12CCC(=O)C=C1CC[C@@H]1[C@@H]2[C@@H](O)C[C@@]2(C)[C@H]1CC[C@]2(O)C(=O)CO [Hydrocortisone base] | 557.864 | 0.004 |  | 
21 | O=C1CC2(CCCC2)CC(=O)N1CCCCN1CCN(c2ncccn2)CC1 [Buspirone hydrochloride] |  | -0.772 | 215.998 | 
22 | CCCCCCC[N+](CC)(CC)CCCCc1ccc(Cl)cc1.Cc1ccc(S(=O)(=O)[O-])cc1 [Clofilium tosylate] |  | -2.506 | 143.363 | 
23 | C[C@H](CCC(=O)O)[C@H]1CC[C@H]2[C@@H]3[C@@H](O)C[C@@H]4C[C@H](O)CC[C@]4(C)[C@H]3CC[C@]12C [ursodeoxycholic acid, reference compound] |  |  |  | position among the hits of the screen (combined ranking of both screening assays): ≤ 150; position among the hits of the screen (combined ranking of both screening assays) (listed as Ursodeoxycholic acid): ≤ 100
24 | CC(=O)N(O)CCCCCNC(=O)CCC(=O)N(O)CCCCCNC(=O)CCC(=O)N(O)CCCCCN [Deferoxamine mesylate] |  | -0.936 | 277.171 | 
25 | Cc1c(NC(C)C)c(=O)n(-c2ccccc2)n1C.Cl [Isopyrin hydrochloride] |  | -3.076 | 209.153 | 
26 | CCCOc1ccc2nc(NC(=O)OC)[nH]c2c1 [Oxibendazol] |  | -0.538 | 199.274 | 

Row | Structure (SMILES) | Ranking score [1] | B-score functional assay (screening taurocholate uptake) | Ranking score [3] | other results
27 | C=CCOC(Cn1ccnc1)c1ccc(Cl)cc1Cl (stereo not drawn) [Enilconazole] | 592.625 | -0.129 |  | 
28 | CNCCCN1c2ccccc2CCc2ccccc21 [Desipramine hydrochloride] |  |  |  | B-score functional assay (Prestwick library screen, taurocholate uptake): 0.022; Ranking score (ranking score beside the functional and binding assay B-scores of the screen): 719.8
29 | C[C@]12N[C@H](Cc3ccccc31)c1ccccc12 [Dizocilpine maleate] | 484.42 | -0.357 |  | 
30 | CC1=C(CC(=O)O)c2cc(F)ccc2/C1=C\c1ccc([S+](C)[O-])cc1 (stereo not drawn) [Sulindac] |  | -1.878 | 109.727 | 
31 | CC(=O)SCC(Cc1ccccc1)C(=O)NCC(=O)OCc1ccccc1 (stereo not drawn) [Racecadotril] |  | -1.398 | 264.726 | 
32 | CC1CCc2c(N3CCC(O)CC3)c(F)cc3c(=O)c(C(=O)O)cn1c23 (stereo not drawn) [Nadifloxacin] | 1251.94 |  |  | B-score functional assay [2]: 3.94
33 | CC(C)[N+](C)(CCOC(=O)C1c2ccccc2Oc2ccccc21)C(C)C [Propantheline bromide] | 472.136 | -0.131 |  | 
34 | CCN(CC)C(=O)c1ccc(O)c(OC)c1 [Ethamivan] | 538.826 | -1.181 |  | 
35 | Oc1ccc(OCc2ccccc2)cc1 [Monobenzone] | 560.227 | -0.057 |  | 
36 | c1ccc(C2CN3CCSC3=N2)cc1 (stereo not drawn) [Tetramisole hydrochloride] |  | -2.419 | 250.531 | 
37 | C[C@]12C/C(=C/O)C(=O)C[C@@H]1CC[C@@H]1[C@@H]2CC[C@@]2(C)[C@H]1CC[C@]2(C)O [Oxymetholone] | 467.145 | -1.45 |  | 
38 | Cc1ccc(S(=O)(=O)NC(=O)NN2CC3CCCC3C2)cc1 (stereo not drawn) [Gliclazide] |  | -0.222 | 246.057 | 
39 | CN1CCCN=C1/C=C/c1cccc(O)c1.O=C(O)c1cc2ccccc2c(Cc2c(O)c(C(=O)O)cc3ccccc23)c1O [Oxantel pamoate] |  | -5.305 | 130.111 | 
40 | CN1[C@@H]2CC[C@H]1C[C@@H](OC(c1ccccc1)c1ccccc1)C2 [Benztropine mesylate] | 529.655 | -0.008 |  | 
41 | Clc1ccc(COC(Cn2ccnc2)c2ccc(Cl)cc2Cl)c(Cl)c1 (stereo not drawn) [Miconazole] |  | -2.763 | 240.998 | 
42 | CCCCN1CCCCC1C(=O)Nc1c(C)cccc1C (stereo not drawn) [Bupivacaine hydrochloride] |  | -1.136 | 231.991 | 
43 | CC(C)n1c(/C=C/C(O)CC(O)CC(=O)O)c(-c2ccc(F)cc2)c2ccccc21 (stereo not drawn) [Fluvastatin sodium salt] |  | -3.098 | 89.7998 | 
44 | [H]/N=C(/N)N/C(=N/[H])NCCc1ccccc1 [Phenformin hydrochloride] |  | 0.533 | 172.511 | 
45 | Cc1c(Nc2ncccc2C(=O)O)cccc1C(F)(F)F [Flunixin meglumine] |  | -2.582 | 133.828 | 
46 | CCn1cc(C(=O)[O-])c(=O)c2ccc(C)nc21.[Na+] [Nalidixic acid sodium salt] | 500.32 | -0.033 |  | 
47 | CO[C@@]1(NC(=O)CSCC#N)C(=O)N2C(C(=O)O)=C(CSc3nnnn3C)CS[C@@H]21 [Cefmetazole sodium salt] |  | -1.174 | 266.713 | 
48 | N[C@@H](C(=O)N[C@@H]1C(=O)N2C(C(=O)O)=C(Cl)CC[C@H]12)c1ccccc1 [Loracarbef] | 611.882 | -0.686 |  | 
49 | CS(=O)(=O)c1ccc(C2=C(c3ccccc3)C(=O)OC2)cc1 [Rofecoxib] |  | 1.027 | 212.386 | 
50 | COC(c1ccccc1)(c1ccccc1)[C@H](Oc1nc(C)cc(C)n1)C(=O)O [Ambrisentan] | 629.311 | -0.389 |  | 
51 | COc1cc(C(=O)OCCCN2CCCN(CCCOC(=O)c3cc(OC)c(OC)c(OC)c3)CC2)cc(OC)c1OC.Cl.Cl [Dilazep dihydrochloride] | 649.692 | -0.659 |  | 
